The text below walks through data of US12612360B2 (Sanofi, priority 2020, dated 2026).

The target of this test is T1, ERα (Homo sapiens, UniProt P03372).
T1 construct: host or cells: MCF7
T1 sequence (P03372 1-595): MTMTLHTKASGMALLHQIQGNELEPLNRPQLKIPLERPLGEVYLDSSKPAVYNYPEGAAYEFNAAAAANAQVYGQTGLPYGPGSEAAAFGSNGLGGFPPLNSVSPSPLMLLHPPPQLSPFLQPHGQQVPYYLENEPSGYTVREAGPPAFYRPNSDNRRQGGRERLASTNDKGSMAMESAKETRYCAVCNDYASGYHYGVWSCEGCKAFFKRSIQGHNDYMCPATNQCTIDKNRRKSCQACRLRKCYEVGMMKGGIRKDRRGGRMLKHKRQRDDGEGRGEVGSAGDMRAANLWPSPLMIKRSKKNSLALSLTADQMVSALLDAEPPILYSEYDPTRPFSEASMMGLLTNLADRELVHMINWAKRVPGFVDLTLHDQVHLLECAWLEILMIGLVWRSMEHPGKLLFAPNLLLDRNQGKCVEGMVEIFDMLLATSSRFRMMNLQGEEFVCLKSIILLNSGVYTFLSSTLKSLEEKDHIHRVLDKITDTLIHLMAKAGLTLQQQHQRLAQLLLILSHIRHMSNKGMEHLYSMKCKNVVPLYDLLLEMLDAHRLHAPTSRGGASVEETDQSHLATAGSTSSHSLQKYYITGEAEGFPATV
The test can be described thus: Estrogen receptor degradation activity: breast cancer cell ERα in cell western assay (MCF7 cells). Type of test: cell-based. As to conditions: for % Degradation At 0.3 μM: 4 hours, relative to fulvestrant 0.1 μM positive control; for DC50: 4 hours post compound addition, concentration which degrades 50% of the estrogen receptor, read-out: Degradation IC50. The method, boiled down:
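In-cell western readout: ERα immunofluorescence (Alexa 488) normalised to DNA signal (Syto-64) after formalin fixation. Compounds dosed for 4 h on MCF7 cells in stripped-serum, phenol-red-free medium over nine 1:5 steps, 0.3 to […] final; fulvestrant 0.1 μM control. IC50 in nM for 50% ERα degradation.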

For the molecule `O=C(O)c1ccc2c(c1)CCCC(c1ccc(Cl)cc1Cl)=C2c1ccc(C=C2CN(CCC(F)(F)F)C2)cc1` [Example 109, 8-(2,4-dichlorophenyl)-9-(4-((1-(3,3,3-trifluoropropyl)azetidin-3-ylidene)methyl)phenyl)-6,7-dihydro-5H-benzo[7]annulene-3-carboxylic acid], the “% Degradation At 0.3 μM” value is listed as 91% and the DC50 is 1400 pM.

As for `O=C(O)c1ccc2c(c1)CCCC(c1ncc(Cl)cc1C(F)(F)F)=C2c1ccc(C=C2CN(CCCF)C2)cc1` [Example 35, 8-(5-chloro-3-(trifluoromethyl)pyridin-2-yl)-9-(4-((1-(3-fluoropropyl)azetidin-3-ylidene)methyl)phenyl)-6,7-dihydro-5H-benzo[7]annulene-3-carboxylic acid], the “% Degradation At 0.3 μM” value turned out to be 93% and the DC50 was determined as 400 pM.

As for `Cc1c(C#N)cccc1C1=C(c2ccc(C=C3CN(CCCF)C3)cc2)c2ccc(C(=O)O)cc2CCC1` [Example 91, 8-(3-cyano-2-methylphenyl)-9-(4-((1-(3-fluoropropyl)azetidin-3-ylidene)methyl)phenyl)-6,7-dihydro-5H-benzo[7]annulene-3-carboxylic acid], the “% Degradation At 0.3 μM” value was 87% and the DC50 was found to be 900 pM.

Take `CC1CCc2cc(C(=O)O)ccc2C(c2ccc(C=C3CN(CCCF)C3)cc2)=C1c1ccc(Cl)cc1` (single isomer, unassigned) [Example 184, 8-(4-chlorophenyl)-9-(4-((1-(3-fluoropropyl)azetidin-3-ylidene)methyl)phenyl)-7-methyl-6,7-dihydro-5H-benzo[7]annulene-3-carboxylic acid]: the “% Degradation At 0.3 μM” value was determined as 90% and the DC50 was 400 pM.

`O=C(O)c1ccc2c(c1)CCCC(c1ccc(F)c(F)c1F)=C2c1ccc(C=C2CN(CCCF)C2)cc1` [Example 135, 9-(4-((1-(3-fluoropropyl)azetidin-3-ylidene)methyl)phenyl)-8-(2,3,4-trifluorophenyl)-6,7-dihydro-5H-benzo[7]annulene-3-carboxylic acid]: the “% Degradation At 0.3 μM” value stood at 96% and the DC50 was 500 pM.

As to `O=C(O)c1ccc2c(c1)CCCC(c1cccc(Cl)c1C(F)(F)F)=C2c1ccc(C=C2CN(CCCF)C2)cc1` [Example 23, 8-(3-chloro-2-(trifluoromethyl)phenyl)-9-(4-((1-(3-fluoropropyl)azetidin-3-ylidene)methyl)phenyl)-6,7-dihydro-5H-benzo[7]annulene-3-carboxylic acid], the “% Degradation At 0.3 μM” value is on record as 96% and the DC50 amounted to 400 pM.

Consider `Cc1cc(C#N)ccc1C1=C(c2ccc(C=C3CN(CCCF)C3)cc2)c2ccc(C(=O)O)cc2CCC1` [Example 84, 8-(4-cyano-2-methylphenyl)-9-(4-((1-(3-fluoropropyl)azetidin-3-ylidene)methyl)phenyl)-6,7-dihydro-5H-benzo[7]annulene-3-carboxylic acid], for which the “% Degradation At 0.3 μM” value is given as 92% and the DC50 turned out to be 2100 pM.

Consider `O=C(O)c1ccc2c(c1)CCCC(c1ccc(F)cc1C(F)(F)F)=C2c1ccc(C=C2CN(CCCF)C2)cc1` [Example 95, 8-(4-fluoro-2-(trifluoromethyl)phenyl)-9-(4-((1-(3-fluoropropyl)azetidin-3-ylidene)methyl)phenyl)-6,7-dihydro-5H-benzo[7]annulene-3-carboxylic acid], for which the “% Degradation At 0.3 μM” value worked out at 94% and the DC50 was 200 pM.

As for `O=C(O)c1ccc2c(c1)CCCC(c1cccc(C(F)(F)F)c1F)=C2c1ccc(C=C2CN(CCC(F)F)C2)cc1` [Example 129, 9-(4-((1-(3,3-difluoropropyl)azetidin-3-ylidene)methyl)phenyl)-8-(2-fluoro-3-(trifluoromethyl)phenyl)-6,7-dihydro-5H-benzo[7]annulene-3-carboxylic acid], the “% Degradation At 0.3 μM” value was found to be 94% and the DC50 stood at 1000 pM.

On to `O=C(O)c1ccc2c(c1)CCCC(c1cc(F)cc(C(F)(F)F)c1)=C2c1ccc(C=C2CN(CCCF)C2)cc1` [Example 155, 8-(3-fluoro-5-(trifluoromethyl)phenyl)-9-(4-((1-(3-fluoropropyl)azetidin-3-ylidene)methyl)phenyl)-6,7-dihydro-5H-benzo[7]annulene-3-carboxylic acid], for which the “% Degradation At 0.3 μM” value stood at 91% and the DC50 is 300 pM.

For the molecule `Cc1c(Cl)cccc1C1=C(c2ccc(C=C3CN(CCC(F)F)C3)cc2)c2ccc(C(=O)O)cc2CCC1` [Example 126, 8-(3-chloro-2-methylphenyl)-9-(4-((1-(3,3-difluoropropyl)azetidin-3-ylidene)methyl)phenyl)-6,7-dihydro-5H-benzo[7]annulene-3-carboxylic acid], the “% Degradation At 0.3 μM” value is 93% and the DC50 came out at 500 pM.

With `FCCCN1CC(=Cc2ccc(C3=C(c4ccccc4Cl)CCCc4ccccc43)cc2)C1` [Example 120, 3-(4-(8-(2-chlorophenyl)-6,7-dihydro-5H-benzo[7]annulen-9-yl)benzylidene)-1-(3-fluoropropyl)azetidine], the “% Degradation At 0.3 μM” value was 98% and the DC50 turned out to be 2680 pM.

On to `Cc1c(F)ccc(C2=C(c3ccc(C=C4CN(CCCF)C4)cc3)c3ccc(C(=O)O)cc3CCC2)c1C` [Example 87, 8-(4-fluoro-2,3-dimethylphenyl)-9-(4-((1-(3-fluoropropyl)azetidin-3-ylidene)methyl)phenyl)-6,7-dihydro-5H-benzo[7]annulene-3-carboxylic acid], for which the “% Degradation At 0.3 μM” value is on record as 94% and the DC50 amounted to 400 pM.

As for `O=C(O)c1ccc2c(c1)CCCC(c1ccc(F)cc1F)=C2c1ccc(C=C2CN(CCC(F)F)C2)cc1` [Example 20, 8-(2,4-difluorophenyl)-9-(4-((1-(3,3-difluoropropyl)azetidin-3-ylidene)methyl)phenyl)-6,7-dihydro-5H-benzo[7]annulene-3-carboxylic acid], the “% Degradation At 0.3 μM” value stood at 92% and the DC50 came to 300 pM.

As for `Cc1cc(C2=C(c3ccc(Cl)cc3Cl)CCCc3cc(C(=O)O)ccc32)ccc1C=C1CN(CCCF)C1` [Example 64, 8-(2,4-dichlorophenyl)-9-(4-((1-(3-fluoropropyl)azetidin-3-ylidene)methyl)-3-methylphenyl)-6,7-dihydro-5H-benzo[7]annulene-3-carboxylic acid], the “% Degradation At 0.3 μM” value stood at 93% and the DC50 turned out to be 300 pM.

Turning to `O=C(O)c1ccc2c(c1)CCCC(C13CCCC1C3)=C2c1ccc(C=C2CN(CCCF)C2)cc1` (stereo not drawn) [Example 175, 8-(bicyclo[3.1.0]hexan-1-yl)-9-(4-((1-(3-fluoropropyl)azetidin-3-ylidene)methyl)phenyl)-6,7-dihydro-5H-benzo[7]annulene-3-carboxylic acid], the “% Degradation At 0.3 μM” value was found to be 87% and the DC50 turned out to be 300 pM.

Turning to `O=C([O-])c1ccc2c(c1)CCCC(c1ccc(F)cc1F)=C2c1ccc(C=C2CN(CCCF)C2)cc1F.[Na+]` [Example 142, Sodium 8-(2,4-difluorophenyl)-9-(2-fluoro-4-((1-(3-fluoropropyl)azetidin-3-ylidene)methyl)phenyl)-6,7-dihydro-5H-benzo[7]annulene-3-carboxylate], the “% Degradation At 0.3 μM” value amounted to 96% and the DC50 was 300 pM.

In the case of `O=C(O)c1ccc2c(c1)CCCC(c1cccc(F)c1F)=C2c1ccc(C=C2CN(CCCF)C2)cc1` [Example 55, 8-(2,3-difluorophenyl)-9-(4-((1-(3-fluoropropyl)azetidin-3-ylidene)methyl)phenyl)-6,7-dihydro-5H-benzo[7]annulene-3-carboxylic acid], the “% Degradation At 0.3 μM” value is given as 94% and the DC50 was 1000 pM.

As for `O=C(O)c1ccc2c(c1)CCCC(c1ccc3c(c1F)CCC3)=C2c1ccc(C=C2CN(CCCF)C2)cc1` [Example 7, 8-(4-fluoro-2,3-dihydro-1H-inden-5-yl)-9-(4-((1-(3-fluoropropyl)azetidin-3-ylidene)methyl)phenyl)-6,7-dihydro-5H-benzo[7]annulene-3-carboxylic acid], the “% Degradation At 0.3 μM” value was 90% and the DC50 is 600 pM.

On to `Cc1cc(Cl)cc(C)c1C1=C(c2ccc(C=C3CN(CCCF)C3)cc2)c2ccc(C(=O)O)cc2CCC1` [Example 83, 8-(4-chloro-2,6-dimethylphenyl)-9-(4-((1-(3-fluoropropyl)azetidin-3-ylidene)methyl)phenyl)-6,7-dihydro-5H-benzo[7]annulene-3-carboxylic acid], for which the “% Degradation At 0.3 μM” value turned out to be 93% and the DC50 turned out to be 400 pM.

With `COc1ccc(C2=C(c3ccc(C=C4CN(CCCF)C4)cc3)c3ccc(C(=O)O)cc3CCC2)c(Cl)c1` [Example 75, 8-(2-chloro-4-methoxyphenyl)-9-(4-((1-(3-fluoropropyl)azetidin-3-ylidene)methyl)phenyl)-6,7-dihydro-5H-benzo[7]annulene-3-carboxylic acid], the “% Degradation At 0.3 μM” value is 92% and the DC50 was 1100 pM.
